Read-outs that look alike come from different tables or passages of the source.
What was measured:
[1] = test system: blood glucose concentration; test: Determination of glucose in the blood after a single oral administration (fasting, metabolically healthy rats); type: in vivo, rat (young male Sprague-Dawley); conditions: Rattus norvegicus
Description: Table I reflects investigations of the effect of representative compounds according to the invention on the blood glucose concentration of fasting, metabolically healthy rats which are observed for 6 hours after a single oral administration of from 0.01 to 0.6 mmol of substance/kg of body weight.
1. Determination of glucose in the blood after a single oral administration-
Young male Sprague-Dawley rats (body weight: 150 to 200 g) are used. The animals are kept in Makrolon cages with up to 4 animals per cage (ambient temperature: 23° C., relative atmospheric humidity: 55%, fixed day/night rhythm [12/12 hours], standard diet: Altromin®). The rats are deprived of the feed 18 hours before the first sample of blood is taken. Water is available ad libitum. Samples of blood are taken from the postorbital plexus by puncture immediately before and 3 and 6 hours after administration of the substance.
After deproteinization with perchloric acid, the glucose in the blood is determined by means of the enzymatic HK/G-6-PDH method of R. Richterich [Klinische Chemie, Theorie und Praxis, (Clinical Chemistry, Theory and Practice), 3rd edition, 1971, S. Karger Verlag, Zurich-Basle, page 275]. A control group (treated with pure solvent) is also investigated in each case for comparison.

in vivo = conditions: mouse, po
Description: Column C provides data relating to acute toxicity (LD50; mice, peroral administration).
2. Determination of the toxicity-
Various doses of the substances (volume: 10 ml/kg) are administered orally by means of a stomach tube. The observation time is 7 days.

[2] = rats p.o., single dose, fasting, observed for 6 hours, with reference to control group, read-out: ED50 (15%): dose which effects a lowering of the blood glucose concentration by at least 15% in 50% of the animals
[3] = rats p.o., single dose, fasting, observed for 6 hours, with reference to control group, read-out: ED50 (25%): dose which effects a lowering of the blood glucose concentration by at least 25% in 50% of the animals

SMILES	ED50 ([1]; 6 h, read-out: ED50 (15%): dose which effects a lowering of the blood glucose concentration by at least 15% in 50% of the animals) [mg/kg]	ED50 ([1]; 6 h, read-out: ED50 (25%): dose which effects a lowering of the blood glucose concentration by at least 25% in 50% of the animals) [mg/kg]	ED50 [1, 2] [mg/kg]	ED50 [1, 3] [mg/kg]	LD50 at 168 h (in vivo) [mg/kg]
CCCCNC(=N)NC(=N)N [Serial No. 1, Buformin, reference compound]	> 100	194	–	–	–
CCOC(=O)C1(CCCCCOc2ccc(Cl)cc2)CO1 (stereo not drawn) [Serial No. 6, 2-[5-(4-Chlorophenoxy)pentyl]oxirane-2-carboxylic acid ethyl ester]	–	–	5	6	310
CCOC(=O)C1(CCCCOc2ccc(C)cc2)CO1 (stereo not drawn) [Serial No. 7, 2-[4-(4-Methylphenoxy)butyl]oxirane-2-carboxylic acid ethyl ester]	–	–	8	19	–
CCOC(=O)C1(CCCCOc2cccc(C(F)(F)F)c2)CO1 (stereo not drawn) [Serial No. 4, 2-[4-(3-Trifluoromethylphenoxy)butyl]oxirane-2-carboxylic acid ethyl ester]	–	–	~7	13	460
CCOC(=O)C1(CCCCCCOc2ccc(Cl)cc2)CO1 (stereo not drawn) [Serial No. 5, 2-[6-(4-Chlorophenoxy)hexyl]oxirane-2-carboxylic acid ethyl ester]	–	–	< 7	7	300
[H]/N=C(/N)N/C(=N/[H])NCCc1ccccc1 [Serial No. 2, Phenformin, reference compound]	–	–	> 150	> 343	–
CCOC(=O)C1(CCCCOc2cccc(Cl)c2)CO1 (stereo not drawn) [Serial No. 3, 2-[4-(3-Chlorophenoxy)butyl]oxirane-2-carboxylic acid ethyl ester]	–	–	3	24	390
